Where two headings read alike, the source gives them in different places. Marks after values point to notes of the source that are not given here.
Columns and labels:
p53 Y220C [1] = biological target: T1, p53 Y220C (Homo sapiens, UniProt P04637, Y220C); assay: DNA binding test (HTRF): binding of P53Y220C protein to DNA; assay type: biochemical; details: multiple ratio of EC50 of the compound to the reference compound, DNA binding test
T1 construct: a truncated mutant containing only amino acids 94-312 of p53; made in house; host or cells: E. coli

Caco-2 cells = assay: Caco-2 cell permeability test; assay type: in vitro ADME; details: Caco-2, 10 μM, 120 min
Protocol: Caco-2 cells (ATCC, Cat. No. HTB-37) were inoculated to a 96-well plate (Corning HTS Transwell, Cat. No. 3391) at 1.25×10^5/cm2, and the culture medium (DMEM+10% FBS+1% Penicillin-Streptomycin Liquid (100×)+1% NEAA) was replaced every 3 to 4 days. The plate was placed in an incubator at 37° C. with 5% CO2 until a confluent cell monolayer was formed after 21 to 28 days. Before the transport experiment, the culture medium was removed from the cell culture plate, and the plate was washed twice with pre-warmed HBSS buffer (10 mM HEPES, pH 7.4), and 100 μL of HBSS buffer was added to each well. After incubation at 37° C. for 30 minutes, the TEER value was measured using a cell resistance meter (Millicell-ERS2) to confirm the integrity and density of the monolayer cells. The HBSS buffer was discarded, the upper plate containing the cell monolayer membrane was transferred to the corresponding receiving plate, 10 mM test compound stock solution was diluted to a concentration of 10 μM with HBSS transport buffer containing 0.5% BSA, and it was added to the apical side (A side) and basolateral side (B side), respectively. Incubation was carried out for 120 min at 37° C., 5% CO2, and 95% relative humidity, and the permeation of the test compound from A side to B side or from B side to A side and the efflux rate of the compound were determined. The test compound and the reference compound were quantified by LC-MS/MS analysis based on the peak area ratio of analyte/internal standard. The apparent permeability coefficient Papp (cm/s) was calculated using the following formula:
[formula] • wherein, dCr/dt represented the functional relation between cumulative concentration of compound in receptor compartment and time; V represented the volume of solution in receptor compartment (0.1 mL at apical side, and 0.25 mL at basolateral side); A represented the transport surface area, i.e., the monolayer cell area was 0.0804 cm^2; CO represented the initial concentration of compound in donor compartment.
The efflux ratio was calculated using the following formula: […]
The percent recovery was calculated using the following formula:
[formula] [formula] • wherein, Vd represented the volume of donor compartment (0.1 mL on the apical side and 0.25 mL on the basolateral side); C and Cr represented the final concentrations of the transported compound in the donor and receptor compartment, respectively; Cc represented the compound concentration in cell lysate; Vc represented the volume of insert well (which was 0.1 mL in this experiment).

NUGC-3 cells = assay: NUGC-3 cell proliferation assay (CTG); assay type: cell-based, human; details: for Compound GI50 (nM)/Reference compound GI50 (nM): multiple ratio of GI50 of the compound to the reference compound; for GI50: Homo sapiens, NUGC-3, 144 h, 6 days, CTG
How it was run: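 NUGC-3 cells (250/well), plated overnight, were exposed 6 days at 37° C to compound, 10 doses of 1:3 dilutions from 10 μM top final. Viability by CellTiter-Glo luminescence; inhibition relative to 0.1% DMSO and blank, GI50 from variable-slope nonlinear fit.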

[2] = Liver microsome stability test, mouse (MLM); assay type: in vitro ADME; details: mouse liver microsomes, NADPH; read-out: T1/2 (min) Mouse
Protocol: (§1) The 10 mM test compound/ketanserin (Energy Chemical, Cat. No. E020711) stock solution was diluted with acetonitrile to 0.5 mM compound/reference compound. The frozen 100 mM NADPH (MCE, Cat. No. HYF003/CS-4998) was diluted with phosphate buffer solution to a concentration of 6 mM; 20 mg/mL HLM (BioIVT, Cat. No. X008067) or MLM (BioIVT, Cat. No. M00501) was diluted with phosphate buffer solution to a concentration of 0.75 mg/ml, and added to a 96-round well plate, respectively, and shaken evenly on an oscillator at 600 rpm. The above oscillated samples were pipetted 3 times with an electric pipettor and dispensed into a new 96-well plate (containing NADPH group (n=2), NADPH-free group was added at 0 and 45 min (n=1)), and there were a total of 5 groups of 0, 5, 15, 30 and 45 min, respectively. After pre-incubation of the 5 groups of samples at 37° C. for 5 min, glacial acetonitrile was quickly added to the 0 min group for precipitation, and after rapid vortexing, K-Buffer or NADPH was added with an electric pipettor. The remaining groups were sequentially added with 6 mM NADPH to start the reaction in the order of 45, 30, 15 and 5 min samples, and K-Buffer solution was added to the NADPH-free group. After mixing at 1000 rpm in an oscillating mixer for 10 s, they were continuously incubated at 37° C. for the corresponding time. The reaction was terminated by quickly adding glacial acetonitrile internal standard using an electric pipettor; after vortexing at 900 rpm for 10 seconds, heat sealing was performed, oscillation was performed on an oscillator for 10 minutes, centrifugation was performed at 4000 rpm for 50 minutes, the supernatant was collected and diluted with pure water, and the test compound and the reference compound were quantified by LC-MS/MS analysis.

[3] = Liver microsome stability test, human (HLM); assay type: in vitro ADME; details: human liver microsomes, NADPH; read-out: T1/2 (min) Human
Protocol: as §1

CYP 3A4 = biological target: T2, CYP 3A4 (Homo sapiens, UniProt P08684); assay: CYP 3A4 time-dependent inhibition test; assay type: in vitro ADME; details: midazolam substrate
T2 construct: purchased BioIVT X008067
T2 sequence (P08684 whole entry): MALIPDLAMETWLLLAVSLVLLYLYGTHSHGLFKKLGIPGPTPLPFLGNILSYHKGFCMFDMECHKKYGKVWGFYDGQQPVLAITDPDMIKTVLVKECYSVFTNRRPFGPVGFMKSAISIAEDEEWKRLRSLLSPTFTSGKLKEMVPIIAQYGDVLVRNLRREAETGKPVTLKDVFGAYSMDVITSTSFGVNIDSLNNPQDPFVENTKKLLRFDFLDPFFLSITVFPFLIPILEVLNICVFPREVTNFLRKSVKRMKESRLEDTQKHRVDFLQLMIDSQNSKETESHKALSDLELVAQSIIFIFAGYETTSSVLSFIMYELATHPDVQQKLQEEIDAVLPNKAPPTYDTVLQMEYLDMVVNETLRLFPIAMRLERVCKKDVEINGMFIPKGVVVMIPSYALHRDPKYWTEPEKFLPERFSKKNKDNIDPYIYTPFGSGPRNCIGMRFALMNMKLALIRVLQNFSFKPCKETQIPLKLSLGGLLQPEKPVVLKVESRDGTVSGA
Protocol: CYP 3A4 and the test compound or mifepristone of various concentrations were added to a 96-deep well plate for pre-incubation. The plate was placed in a water bath and preheated at 37° C. for 5 min. For the 0 min pre-incubation samples, midazolam substrate was added to the incubation plate, then 10 mM NADPH solution was added, and the reaction was carried out in a 37° C. water bath for 5 min; for the 30 min pre-incubation samples with NADPH, 10 mM NADPH solution was added to the incubation plate, pre-incubated in a 37° C. water bath for 30 min, and then midazolam substrate was added and reacted in a 37° C. water bath for 5 min; for the 30 min pre-incubation samples without NADPH, the incubation plate was pre-incubated in a 37° C. water bath for 30 min, then midazolam substrate was added, 10 mM NADPH solution was added, and the reaction was carried out in a 37° C. water bath for 5 min. After the reaction was completed, the quenching solution (500 nM tolbutamide (Bide Pharmaceuticals, Cat. No. BD154332) and 10 nM terfenadine (Sigma, Cat. No. T96532)) were added to quench the reaction, and the plate was centrifuged at 3,220 g for 40 min at 4° C. The supernatant was pipetted into a new plate, the supernatant was diluted with pure water and mixed well, and the sample was analyzed using UPLC-MS/MS.

p53 Y220C [4] = biological target: T3, p53 Y220C (Homo sapiens, UniProt P04637, P309S/R273H/Y220C); assay: DNA binding test (HTRF): binding of P53Y220C protein to DNA; assay type: biochemical; details: HTRF, activation of p53 Y220C (aa 94-312) binding to biotin DNA
T3 construct: a truncated mutant containing only amino acids 94-312 of p53; made in house; host or cells: E. coli

[5] = Pharmacokinetic test in mice; assay type: in vivo; details: male, ICR, mouse, plasma
Protocol: ICR male mice (15 to 35 g, 5 to 10 weeks old, Shanghai Xipuer-Bikai Experimental Animal Co., Ltd.) were selected as test animals in this study. The LC-MS/MS method was used to quantitatively determine drug concentrations in the plasma of mice at different time points after intravenous injection or oral gavage administration of the test compound to evaluate the pharmacokinetic characteristics of the compound in mice. The clear solution of the test compound was injected into ICR mice via the tail vein (without fasting, solvent: 40% hydroxypropyl-β-cyclodextrin) and administered to ICR mice by oral gavage (fasting for 10 to 14 hours, free drinking water, solvent: 0.2% hydroxypropyl cellulose, 0.5% Tween 80). For intravenous administration, blood was collected from the submandibular venous plexus at 0.033, 0.083, 0.25, 0.5, 1, 2, 4, 8, and 24 hours after administration, placed in an anticoagulant tube with EDTA-K2 (Jiangsu Kangjian Medical Supplies Co., Ltd.), mixed, and centrifuged at 2-8° C., 6800 g for 6 minutes to obtain plasma; for oral gavage administration, blood was collected from the submandibular venous plexus at 0.083, 0.25, 0.5, 1, 2, 4, 6, 8, and 24 hours after administration, placed in an anticoagulant tube with EDTA-K2 (Jiangsu Kangjian Medical Supplies Co., Ltd.), mixed, and centrifuged at 2-8° C., 6800 g for 6 minutes to obtain plasma. The blood drug concentration was determined by LC-MS/MS, and the relevant pharmacokinetic parameters were calculated by the non-compartmental linear logarithmic trapezoidal method using Phoenix WinNonlin™ Version 7.0 (Pharsight, USA) pharmacokinetic software.

BxPC-3 cells = assay: BxPC-3 cell proliferation test (CTG); assay type: cell-based; details: Homo sapiens, 144 h, 6 days
Protocol: To detect the inhibitory effects of the aforementioned compounds on the proliferation ability of BxPC-3 cells, 125 BxPC-3 cells (ATCC®CRL-1687) were seeded into a 384-well plate (Corning 3765), 35 μL per well, and placed in a constant temperature incubator at 37° C. and 5% CO2 overnight. Then, 40 nL of the compound was added to the 384-well plate using an Echo 655 Liquid Handler, with a maximum final concentration of 10 μM, 1:3 serial dilution, and in a total of 10 doses. Incubation was performed at 37° C., 5% CO2 for 6 days. The plate was taken out from the incubator and equilibrated at room temperature for 10 minutes. 20 μL of CTG (Promage G7572) was added to each well of the plate according to the platemap. The plate was centrifuged at 1000 rpm for 1 minute. The lysis of cells was induced by mixing on a shaker for 2 minutes. The plate was centrifuged at 1000 rpm for 1 minute. Incubation was performed at room temperature for 10 minutes to stabilize luminescence signals. Luminescence values were recorded by Envision (PerkinElmer 2105-0020). GraphPad 9.0 was used to fit the inhibition rate and compound concentration into a nonlinear regression curve (dose response-variable slope) to calculate GI50, inhibition rate={1−(A−B)/(C−B)}*100%, A=signal value of compound; B=average signal of blank control; C=average signal of negative control (wherein the negative control was 0.1% DMSO).

[6] = 0 min pre-incubation, read-out: IC50 (μM) 0 min
[7] = 30 min pre-incubation with NADPH, read-out: IC50 (μM) 30 min, with NADPH
[8] = 30 min pre-incubation without NADPH, read-out: IC50 (μM) 30 min, without NADPH

| Structure (SMILES) | Compound EC50 (nM)/Reference compound EC50 (nM) (p53 Y220C [1]) | Efflux Ratio (Caco-2 cells) | Papp A to B (Caco-2 cells; A to B) | Papp B to A (Caco-2 cells; B to A) | Compound GI50 (nM)/Reference compound GI50 (nM) (NUGC-3 cells) | half-life [2] [min] | half-life [3] [min] | IC50 (CYP 3A4; [6]) [µM] | IC50 (CYP 3A4; [7]) [µM] | IC50 (CYP 3A4; [8]) [µM] | EC50 (p53 Y220C [4]) [µM] | AUC ([5]; 25 mg/kg, po 25 mpk) [ng·h/mL] | Cmax ([5]; 25 mg/kg, po 25 mpk) [ng/mL] | clearance ([5]; 2.5 mg/kg, iv 2.5 mpk) [mL/min/kg] | GI50 (NUGC-3 cells) [µM] | GI50 (BxPC-3 cells) [µM] |
| --- | --- | --- | --- | --- | --- | --- | --- | --- | --- | --- | --- | --- | --- | --- | --- | --- |
| COc1cc(S(C)(=O)=O)ccc1NCC#Cc1nc2c(NC3CC[C@@H](N4CC5(COC5)C4)C[C@@H]3F)cccn2c1CC(F)(F)F (stereo partly drawn) [Compound 48] | B (B: EC50 of the reference compound<EC50 of the compound≤3.0*EC50 of the reference compound) | 2.58 | 2.50 10^−6 cm/s | 6.43 10^−6 cm/s | B (B: GI50 of the reference compound < GI50 of the compound ≤ 3.0 * GI50 of the reference compound) | – | – | – | – | – | – | – | – | – | – | – |
| CNC(=O)c1ccc(NCC#Cc2cc3c(N[C@@H]4CCN(C)C[C@@H]4F)cccc3n2CC(F)(F)F)c(OC)c1 [Reference compound, reference compound] | – | – | – | – | – | 17.1 | 24.9 | 3.24 | 0.58 | 2.55 | – | – | – | – | – | – |
| [2H]C([2H])([2H])NC(=O)c1ccc(NCC#Cc2nc3c(NC4CCC(N5CCOCC5)CC4F)cccn3c2CC(F)(F)F)c(OC([2H])([2H])[2H])c1 (single isomer, unassigned) [Compound 70d] | A (A: EC50 of the compound≤EC50 of the reference compound) | – | – | – | A (A: GI50 of the compound ≤ GI50 of the reference compound) | – | – | 5.95 | 1.91 | 6.65 | < 0.1 | 59700 | 13100 | 11 | < 1 | – |
| CNC(=O)c1ccc(NCC#Cc2cc3c(NC4CCC(N5CC6(COC6)C5)CC4F)cccn3c2CC(F)(F)F)c(OC)c1 (single isomer, unassigned) [Compound 65d] | B (B: EC50 of the reference compound<EC50 of the compound≤3.0*EC50 of the reference compound) | – | – | – | B (B: GI50 of the reference compound < GI50 of the compound ≤ 3.0 * GI50 of the reference compound) | 16.9 | 65.3 | – | – | – | < 0.1 | – | – | – | < 1 | < 1 |

Source: patent US20260132128A1, “COMPOUND FOR RECOVERING P53 MUTATION FUNCTION AND USE THEREOF” (SHENZHEN ZHONGGE BIOLOGICAL TECHNOLOGY CO., LTD., priority 2022, published 2026)
